Test results reported in ChEMBL document CHEMBL3045203, “Synthesis and biological evaluation of some N4-substituted 5-nitroisatin-3-thiosemicarbazones” (Med Chem Res, 2012).
Activity calls are given as the source filed them. No cut-off for these calls is given here.

Assays:
Lemna aequinoctialis [1] = assay: Phytotoxicity against Lemna aequinoctialis assessed as growth inhibition at 100 ug/ml; format: functional; conditions: read-out: GI
Homo sapiens [2] = species: Homo sapiens; assay: Inhibition of […] urease using urea as substrate at 0.1 uM preincubated for 5 min before substrate addition measured after 10 min relative to control
Microsporum canis = assay: Antifungal activity against Arthroderma otae at 200 ug/ml after 7 days; format: functional; conditions: 168 h
Nakaseomyces glabratus = assay: Antifungal activity against Candida glabrata at 200 ug/ml after 7 days; format: functional; conditions: 168 h
Homo sapiens [3] = species: Homo sapiens; assay: Inhibition of […] urease using urea as substrate at 0.01 uM preincubated for 5 min before substrate addition measured after 10 min relative to control
Fusarium solani = assay: Antifungal activity against Fusarium solani at 200 ug/ml after 7 days; format: functional; conditions: 168 h
Aspergillus flavus = assay: Antifungal activity against Aspergillus flavus at 200 ug/ml after 7 days; format: functional; conditions: 168 h
Candida albicans = assay: Antifungal activity against Candida albicans at 200 ug/ml after 7 days; format: functional; conditions: 168 h
Homo sapiens [4] = species: Homo sapiens; assay: Inhibition of […] urease using urea as substrate at 100 uM preincubated for 5 min before substrate addition measured after 10 min relative to control
Homo sapiens [5] = species: Homo sapiens; assay: Inhibition of […] urease using urea as substrate at 1 uM preincubated for 5 min before substrate addition measured after 10 min relative to control
Lemna aequinoctialis [6] = assay: Phytotoxicity against Lemna aequinoctialis assessed as growth inhibition at 1000 ug/ml; format: functional; conditions: read-out: GI
[7] = Toxicity inArtemia salina (brine shrimp) larvae assessed as mortality after 24 hr; format: organism-based; conditions: artemia salina, in vivo; read-out: LD50
Homo sapiens [8] = species: Homo sapiens; assay: Inhibition of […] urease using urea as substrate at 10 uM preincubated for 5 min before substrate addition measured after 10 min relative to control
Lemna aequinoctialis [9] = assay: Phytotoxicity against Lemna aequinoctialis assessed as growth inhibition at 10 ug/ml; format: functional; conditions: read-out: GI
[10] = Inhibition of […] urease using urea as substrate preincubated for 5 min before substrate addition measured after 10 min
Lemna aequinoctialis [11] = assay: Phytotoxicity against Lemna aequinoctialis assessed as growth inhibition at 50 ug/ml; format: functional; conditions: read-out: GI
Lemna aequinoctialis [12] = assay: Phytotoxicity against Lemna aequinoctialis assessed as growth inhibition at 5 ug/ml; format: functional; conditions: read-out: GI
Lemna aequinoctialis [13] = assay: Phytotoxicity against Lemna aequinoctialis assessed as growth inhibition at 500 ug/ml; format: functional; conditions: read-out: GI
Homo sapiens [14] = species: Homo sapiens; assay: Increase of […] urease using urea as substrate at 100 uM preincubated for 5 min before substrate addition measured after 10 min relative to control
Homo sapiens [15] = species: Homo sapiens; assay: Increase of […] urease using urea as substrate at 10 uM preincubated for 5 min before substrate addition measured after 10 min relative to control
Homo sapiens [16] = species: Homo sapiens; assay: Increase of […] urease using urea as substrate at 0.1 uM preincubated for 5 min before substrate addition measured after 10 min relative to control
Homo sapiens [17] = species: Homo sapiens; assay: Increase of […] urease using urea as substrate at 0.01 uM preincubated for 5 min before substrate addition measured after 10 min relative to control
Homo sapiens [18] = species: Homo sapiens; assay: Increase of […] urease using urea as substrate at 1 uM preincubated for 5 min before substrate addition measured after 10 min relative to control
Lemna aequinoctialis [19] = assay: Phytotoxicity against Lemna aequinoctialis assessed as growth inhibition at 0.015 ug/ml; format: functional; conditions: read-out: GI

| Compound | inhibition of growth at 100 µg/mL (Lemna aequinoctialis [1]) | inhibition (Homo sapiens [2]) | inhibition at 200 µg/mL (Microsporum canis) | inhibition at 200 µg/mL (Nakaseomyces glabratus) | inhibition (Homo sapiens [3]) | inhibition at 200 µg/mL (Fusarium solani) | inhibition at 200 µg/mL (Aspergillus flavus) | inhibition at 200 µg/mL (Candida albicans) | inhibition (Homo sapiens [4]) | inhibition (Homo sapiens [5]) | inhibition of growth at 1000 µg/mL (Lemna aequinoctialis [6]) | LC50 at 24 h [7] | inhibition (Homo sapiens [8]) | inhibition of growth at 10 µg/mL (Lemna aequinoctialis [9]) | other results |
| --- | --- | --- | --- | --- | --- | --- | --- | --- | --- | --- | --- | --- | --- | --- | --- |
| C=CCNC(=S)N/N=C1\C(=O)Nc2ccc([N+](=O)[O-])cc21 | 35% | 15% | 20% | 0% | 21.6% | 0% | 0% | 0% | 15.9% | 12% | 50% | > 1630 µM | 8% | 25% |  |
| NC(N)=S [THIOUREA] |  | 14.5% |  |  | 8.16% |  |  |  | 94.3% | 20.9% |  |  | 8.09% |  | IC50 [10]: 50.1 µM |
| Cc1ccc(NC(=S)N/N=C2\C(=O)Nc3ccc([N+](=O)[O-])cc32)cc1 | 20% | inactive | 40% | 0% | 8% | 30% | 30% | 0% | 7% | 4% | 30% | > 1400 µM | 4% | 15% |  |
| CCCCCCNC(=S)N/N=C1\C(=O)Nc2ccc([N+](=O)[O-])cc21 | 35% | 58% | 50% | 0% | 60% | 0% | 0% | 0% | 40.9% | 37% | 60% | > 1430 µM | 27% | 25% | IC50 [10]: 0.44 µM |
| COc1ccc(NC(=S)N/N=C2\C(=O)Nc3ccc([N+](=O)[O-])cc32)cc1 | 15% | 44% | 0% | 0% | 47.6% | 0% | 20% | 0% | 46.6% | 33.6% | 25% | > 1340 µM | 38.6% | 10% |  |
| N#Cc1cccc(NC(=S)N/N=C2\C(=O)Nc3ccc([N+](=O)[O-])cc32)c1 | 15% | 16% | 20% | 0% | 20.7% | 15% | 20% | 0% | 8.9% | 1.8% | 25% | 1160 µM | 12.6% | 5% |  |
| Cc1cccc(NC(=S)N/N=C2\C(=O)Nc3ccc([N+](=O)[O-])cc32)c1 | 20% | 5.8% | 0% | 0% | 6.5% | 30% | 0% | 0% | 34% | 13.9% | 25% | > 1400 µM | 22% | 10% |  |
| O=C1Nc2ccc([N+](=O)[O-])cc2/C1=N/NC(=S)Nc1ccc(I)cc1 | 10% | 51% | 0% | 0% | 57% | 0% | 0% | 0% | 50% | 52% | 25% | > 1070 µM | 47% | 5% | IC50 [10]: 0.901 µM |
| COc1ccc(NC(=S)N/N=C2\C(=O)Nc3ccc([N+](=O)[O-])cc32)c(OC)c1 | 25% | 66.8% | 20% | 0% | 68% | 0% | 20% | 0% | 37.9% | 61% | 30% | > 1240 µM | 53.5% | 15% | IC50 [10]: 27.9 µM |
| O=C1Nc2ccc([N+](=O)[O-])cc2/C1=N/NC(=S)Nc1ccccc1 |  | 5.8% | 0% | 0% | 8.8% | 0% | 20% | 0% | 6% | 0.65% |  | > 1470 µM | inactive |  | inhibition of growth at 50 µg/mL (Lemna aequinoctialis [11]): 10%; inhibition of growth at 5 µg/mL (Lemna aequinoctialis [12]): 5%; inhibition of growth at 500 µg/mL (Lemna aequinoctialis [13]): 20% |
| O=C1Nc2ccc([N+](=O)[O-])cc2/C1=N/NC(=S)Nc1ccc(Br)cc1 | 15% | 4.5% | 0% | 0% | 18.9% | 0% | 20% | 0% | 4% | 6.6% | 20% | > 1190 µM | 8% | 10% |  |
| O=C1Nc2ccc([N+](=O)[O-])cc2/C1=N/NC(=S)Nc1ccccc1C(F)(F)F | 15% | 23% | 20% | 0% | 21.6% | 0% | 0% | 0% | 21% | 30.9% | 25% | > 1220 µM | 20.9% | 10% |  |
| O=C1Nc2ccc([N+](=O)[O-])cc2/C1=N/NC(=S)Nc1ccc(F)cc1 | 15% |  | 20% | 0% |  | 20% | 0% | 0% |  |  | 20% | > 1390 µM |  | 5% | Activity (Homo sapiens [14]): inactive; Activity (Homo sapiens [15]): inactive; Activity (Homo sapiens [16]): inactive; Activity (Homo sapiens [17]): inactive; Activity (Homo sapiens [18]): inactive |
| COc1ccc(OC)c(NC(=S)N/N=C2\C(=O)Nc3ccc([N+](=O)[O-])cc32)c1 | 30% | 25.9% | 20% | 0% | 34.5% | 0% | 40% | 0% | 11% | 15.6% | 35% | > 1240 µM | 17.8% | 25% |  |
| C[n+]1ccc(-c2cc[n+](C)cc2)cc1 [PARAQUAT] |  |  |  |  |  |  |  |  |  |  |  |  |  |  | inhibition of growth at 0.015 µg/mL (Lemna aequinoctialis [19]): 100% |
